Data from patent US9125930B2, “EGFR aptamer inhibitor for use in therapy and diagnosis” (CONSIGLIO NAZIONALE DELLE RICERCHE, priority 2010, dated 2015).

Key:
A549 cells [1] = assay: Cell viability assay, A549 cells; assay type: cell-based, human; conditions: dose-dependent experiments, 0.1-10 μM
Experimental: Cell viability was assessed with CellTiter 96® AQueous One Solution Cell Proliferation Assay (Promega, Madison, Wis.) according to according to the supplier's instructions. […] The optical density (OD) was measured using a Multilabel Counter (Bio-Rad) at a wavelength of 490 nm and cell viability was calculated by the following formula: Cell viability (%)=(OD treated cells/OD control cells)×100%. FACS Analysis

A549 cells [2] = assay: Apoptosis assay by PI staining and FACS; assay type: cell-based, human; parameters: dose or concentration left out as unconfirmed; conditions: A549, 24 hs or 48 hs
Experimental: For apoptosis assay, DNA content analysis was performed by staining with propidium iodide (PI) and analyzing cells by flow cytometry (FACS).
[…] Cells were incubated with 2 μg/ml propidium iodide (PI, Sigma, St. Louis, Mo.) for 30 min at 4° C. and recovered. The relative proportion of cells with DNA content indicative of apoptosis (ipoploid) was determined by FACS.

A431 tumors = assay: Tumor growth in A431 mouse xenograft; assay type: in vivo; conditions: 200 pmoles intratumoral, three times a week for two weeks
Experimental: Athymic nude mice (nu/nu) were maintained in a sterile environment according to guidelines for Animal Care. Mice were inoculated with either 3×10^6 (in 100 μl) in vitro propagated A431 cells subcutaneously injected into each flank. Approximately 24 non-necrotic tumors for each tumor type, of about 1 cm in diameter, were randomly divided into three groups of eight mice per treatment group as follows: group 1, no treatment; group 2, treated with scrambled RNA as a negative control (200 pmols/injection); group 3, treated with CL4 42-81 (200 pmols/injection). Compounds were injected intra-tumorally in 100-1 μl volumes three times a week for two weeks. Day 0 marks the first day of injection. The aptamers may also be administered systemically, in particular when optimized by addition of polyethylene glycol (PEG).
The volume injections are small enough to preclude the compounds being forced inside the cells due to a nonspecific high-pressure injection. Tumors were measured every 3 days with calipers in three dimensions. The following formula was used to calculate tumor volume: VT=(W×L×H)×0.5236 (W, the shortest dimension; L, the longest dimension; H, the intermediate dimension). The growth curves are plotted as the means tumor volume±s.e.m. Statistical analysis of tumor size data was conducted using a one-way ANOVA. A P-value of 0.05 or less was considered to indicate a significant difference. […]

EGFR = EGFR (Homo sapiens, UniProt P00533); assay: Immunoblot of EGF-dependent EGFR phosphorylation in A549 cells; assay type: cell-based; parameters: endogenous in cells; host or cells: A549; conditions: 200 nM aptamer, following 5 min of EGFR stimulation
Experimental: […] The aptamers were subjected to a short denaturation-renaturation step (85° C. for 5 min, snap-cooled on ice for 2 min, and allowed to warm up to 37° C.) before each treatment. To prepare cell extracts, cells were washed twice in ice-cold PBS, and lysed in buffer A (50 mM Tris-HCl pH 8.0 buffer containing 150 mM NaCl, 1% Nonidet P-40, 2 mg/ml aprotinin, 1 mg/ml pepstatin, 2 mg/ml leupeptin, 1 mM Na3VO4). Protein concentration was determined by the Bradford assay using bovine serum albumin as the standard. The cell lysates were subjected to SDS-PAGE. Gels were electroblotted into polyvinylidene difluoride membranes (Millipore Co., Bedford, Mass.), and filters were probed with the indicated primary antibodies: anti-EGFR and anti-phospho-EGFR (Tyr1062), anti-phospho-44/42 MAP kinase (E10) (also indicated as p-Erk), anti-phospho-Akt, anti-Akt and anti-phospho-STAT3 (Tyr705), anti-ErbB2 (all from Cell Signaling, Beverly, Mass., United States); anti-Erk1, anti-EGFR, anti-ErbB3, anti-ErbB4 (C-16) (Santa Cruz Biotechnology, California, United States); anti-α-αtubulin (DM 1A) (Sigma, St. Louis, Mo.).
Proteins were visualized with peroxidase-conjugated secondary antibodies using the enhanced chemiluminescence system (GE Healthcare Bio-Sciences, Uppsala, Sweden). […]

A549 cells [3] = assay: Binding of [32P]-labeled aptamer on A549 cells; parameters: species or system human; conditions: binding to A549 target cells
Experimental: Binding experiments were performed with 5′-[^32P]-labeled RNA. For labeling 2′-F-Py RNAs were 5′-end dephosphorylated using bacterial alcaline phosphatase (Invitrogen, Carlsbad, Calif.) before [^32P]-5′-end-labeled using T4 kinase (Invitrogen) and γ-[^32P]-ATP (6×10^3 Ci/mmol, GE Healthcare Bio-Sciences, Uppsala, Sweden) according to the supplier's instructions.
For binding experiments on cells, 3.5×10^4 cells were plated in 24-well plates in triplicate and were incubated with CL4 42-81 aptamer the scrambled sequence used as a negative control at 100 nM concentration in 200 μl of DMEM serum free for 20 min at RT in the presence of 100 μg/ml polyinosine as a nonspecific competitor (Sigma, St. Louis, Mo.). After five washings with 500 μl DMEM, bound sequences were recovered in 300 μl of SDS 1%, and the amount of radioactivity recovered was counted.

Molecule: COc1cc2ncnc(Nc3ccc(F)c(Cl)c3)c2cc1OCCCN1CCOCC1 [gefitinib, reference compound]
- sensitivity of A549 cell viability (A549 cells [1]): resistant

Molecule: scrambled aptamer: scrambled aptamer used as negative control: 5′ UUCGUACCGGGUAGGUUGGCUUGCACAUAGAACGUGUCA 3′ (SEQ ID NO: 2) (listed as RNA, chemistry not given here) [reference compound]
- effect on percentage of apoptotic cells (A549 cells [2]): No effect
- tumor volume (A431 tumors): not observed
- inhibition of EGF-dependent phosphorylation of EGFR (EGFR): No effect

B1: CL4: entire 92 nt aptamer generated by differential cell-SELEX on A549 cells (SEQ ID NO: 4), parent of CL4 42-81 (nucleic acid)
chain: GGGAGACAAGAAUAAACGCUCAACGACACGUUGCCAGCCGGAGCCUUAGUAACGUGCUUUGAUGUCGAUUCGACAGGAGGCUCACAACAGGC
modifications: listed as RNA, chemistry not given here
- Kd (A549 cells [3]): 46 nM
